Results: patent US8354403B2, “Pyrrolidine derived beta 3 adrenergic receptor agonists” (Merck Sharp & Dohme Corp., priority 2009, dated 2013)
Where two headings read alike, the source gives them in different places. Values belong to the molecule of their own block, whether it stands above or below them.

Key:
[1] = target: T1, β3AR (Rattus norvegicus, UniProt P26255); settings: rats, intravenous administration, cited from earlier work
T1 construct: host or cells: live rats (bladder, in vivo)

[2] = target: T2, human β3 adrenergic receptor (Homo sapiens, UniProt P13945); experiment: Beta-3 agonist in vitro functional assay: cAMP production (LANCE TR-FRET) in CHO cells stably transfected with the cloned β3 receptor; type: cell-based
T2 construct: expressed in transfected cells; host or cells: Chinese hamster ovary (CHO) cells, stably transfected
T2 sequence (P13945 whole entry): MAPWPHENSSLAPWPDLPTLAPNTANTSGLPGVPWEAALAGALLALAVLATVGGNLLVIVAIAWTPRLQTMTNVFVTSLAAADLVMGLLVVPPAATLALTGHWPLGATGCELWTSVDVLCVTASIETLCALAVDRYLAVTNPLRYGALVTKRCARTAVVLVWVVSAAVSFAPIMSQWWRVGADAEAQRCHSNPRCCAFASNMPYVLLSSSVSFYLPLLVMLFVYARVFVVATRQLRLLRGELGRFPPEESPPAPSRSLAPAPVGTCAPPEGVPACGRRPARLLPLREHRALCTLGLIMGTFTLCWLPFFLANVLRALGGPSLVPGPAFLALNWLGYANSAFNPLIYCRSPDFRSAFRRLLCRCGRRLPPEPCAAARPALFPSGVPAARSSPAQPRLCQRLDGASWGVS
In short: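 CHO cells stably expressing the cloned receptor, in HEPES-buffered HBSS with BSA and 0.6 mM IBMX, 6,000 cells/well, exposed to compound for 30 min at RT. cAMP read by LANCE TR-FRET against a cAMP standard curve. Isoproterenol defines maximal stimulation.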

[3] = Table 8, Beta-3 agonist in vitro functional assay, read-out: Human β3 agonist functional activity
[4] = Table 9, Beta-3 agonist in vitro functional assay, read-out: Human β3 agonist functional activity

T1 sequence (P26255 whole entry): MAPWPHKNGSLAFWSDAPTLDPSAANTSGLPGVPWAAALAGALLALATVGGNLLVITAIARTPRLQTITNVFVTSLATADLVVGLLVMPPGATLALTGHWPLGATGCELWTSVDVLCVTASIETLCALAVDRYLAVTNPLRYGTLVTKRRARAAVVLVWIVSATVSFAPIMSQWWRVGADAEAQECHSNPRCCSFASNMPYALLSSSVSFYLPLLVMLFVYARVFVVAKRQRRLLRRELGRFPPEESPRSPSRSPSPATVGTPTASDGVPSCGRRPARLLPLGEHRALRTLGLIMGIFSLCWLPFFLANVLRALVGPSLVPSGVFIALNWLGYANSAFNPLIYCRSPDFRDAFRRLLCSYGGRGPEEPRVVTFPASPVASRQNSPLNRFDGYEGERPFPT

Compound: C[C@H](Cc1ccc2c(c1)OC(C(=O)[O-])(C(=O)[O-])O2)NC[C@H](O)c1cccc(Cl)c1.[Na+].[Na+] [CL316243]
- bladder capacity ([1]; cystometric studies): increases bladder capacity
- micturition interval ([1]; cystometric studies): prolongation of micturition interval
- residual urine volume ([1]; cystometric studies): without increasing residual urine volume
- bladder pressure [1]: reduces bladder pressure

- EC50 ([2]; given as a range, cAMP, CHO cells, read-out: human β3 functional activity): 1 to 9.9 nM
Compound: O=C(c1ccc(C[C@@H]2CC[C@H]([C@H](O)c3ccccc3)N2)cc1)N1CCC2(CCOC2=O)CC1 [Example 239, 8-[4-({(2S,5R)-5-[(R)-hydroxy(phenyl)methyl]pyrrolidin-2-yl}methyl)benzoyl]-2-oxa-8-azaspiro[4.5]decan-1-one]

- EC50 [2, 3]: 100 to 999 nM
Compound: CC1(c2nn[nH]n2)CCN(C(=O)c2ccc(C[C@@H]3CC[C@H]([C@H](O)c4ccccc4)N3)cc2)CC1 [Example 243]

- EC50 [2, 3]: < 1 nM
Compound: CC1(Cc2ccc(F)cc2)CC2(CCN(C(=O)c3ccc(C[C@@H]4CC[C@H]([C@H](O)c5ccccc5)N4)cc3)CC2)OC1=O (stereo partly shown) [Example 278]

- EC50 [2, 3]: 1 to 9.9 nM
Compound: O=C(c1ccc(C[C@@H]2CC[C@H]([C@H](O)c3ccccc3)N2)cc1)N1CCC2(CCc3ccccc3S2(=O)=O)CC1 [Example 336]

- EC50 ([2]; Table 5, cAMP, CHO cells, read-out: Human β3 agonist functional activity): 10 to 99.9 nM
Compound: O=C(c1ccc(C[C@@H]2CC[C@H]([C@H](O)c3ccccc3)N2)cc1)N1CCC(c2cccc(F)n2)CC1 [Example 112]

- EC50 ([2]; Table 4, cAMP, CHO cells, read-out: Human β3 agonist functional activity): 100 to 999 nM
Compound: Cn1ncc2c1CN(C(=O)c1ccc(C[C@@H]3CC[C@H]([C@H](O)c4ccccc4)N3)cc1)C2 [Example 28]

- EC50 ([2]; Table 10, Beta-3 agonist in vitro functional assay, read-out: Human β3 agonist functional activity): 10 to 99.9 nM
Compound: CC(C(=O)NCC1CC1)N1CCN(C(=O)c2ccc(C[C@@H]3CC[C@H]([C@H](O)c4ccccc4)N3)cc2)CC1 (stereo partly shown) [Example 447]

- EC50 [2, 4]: 100 to 999 nM
Compound: O=C(c1ccc(C[C@@H]2CC[C@H]([C@H](O)c3ccccc3)N2)cc1)N1CCN(c2nccnc2Cl)CC1 [Example 371]

- EC50 [2, 4]: 100 to 999 nM
Compound: O=C(c1ccc(C[C@@H]2CC[C@H]([C@H](O)c3ccccc3)N2)cc1)N1CCN(c2ncc3ccccc3n2)CC1 [Example 375]
